Measurements reported in ChEMBL document CHEMBL5046253, “Synthesis and bioevaluation of diaryl urea derivatives as potential antitumor agents for the treatment of human colorectal cancer” (Eur J Med Chem, 2022).
pIC50: −log10 of the molar value. Activity calls are given as the source filed them. The calls are words filed in the database; no cut-off is given here.

Columns and labels:
[1] = target: Phosphatidylinositol 4,5-bisphosphate 3-kinase catalytic subunit beta isoform (Homo sapiens, UniProt P42338); assay: Inhibition of PI3Kbeta (unknown origin) using PIP2 as substrate in presence of ATP incubated for 60 mins by ADP-glo based luminescence assay
Phosphatidylinositol 4,5-bisphosphate 3-kinase catalytic subunit beta isoform, sequence (P42338 whole entry, canonical isoform): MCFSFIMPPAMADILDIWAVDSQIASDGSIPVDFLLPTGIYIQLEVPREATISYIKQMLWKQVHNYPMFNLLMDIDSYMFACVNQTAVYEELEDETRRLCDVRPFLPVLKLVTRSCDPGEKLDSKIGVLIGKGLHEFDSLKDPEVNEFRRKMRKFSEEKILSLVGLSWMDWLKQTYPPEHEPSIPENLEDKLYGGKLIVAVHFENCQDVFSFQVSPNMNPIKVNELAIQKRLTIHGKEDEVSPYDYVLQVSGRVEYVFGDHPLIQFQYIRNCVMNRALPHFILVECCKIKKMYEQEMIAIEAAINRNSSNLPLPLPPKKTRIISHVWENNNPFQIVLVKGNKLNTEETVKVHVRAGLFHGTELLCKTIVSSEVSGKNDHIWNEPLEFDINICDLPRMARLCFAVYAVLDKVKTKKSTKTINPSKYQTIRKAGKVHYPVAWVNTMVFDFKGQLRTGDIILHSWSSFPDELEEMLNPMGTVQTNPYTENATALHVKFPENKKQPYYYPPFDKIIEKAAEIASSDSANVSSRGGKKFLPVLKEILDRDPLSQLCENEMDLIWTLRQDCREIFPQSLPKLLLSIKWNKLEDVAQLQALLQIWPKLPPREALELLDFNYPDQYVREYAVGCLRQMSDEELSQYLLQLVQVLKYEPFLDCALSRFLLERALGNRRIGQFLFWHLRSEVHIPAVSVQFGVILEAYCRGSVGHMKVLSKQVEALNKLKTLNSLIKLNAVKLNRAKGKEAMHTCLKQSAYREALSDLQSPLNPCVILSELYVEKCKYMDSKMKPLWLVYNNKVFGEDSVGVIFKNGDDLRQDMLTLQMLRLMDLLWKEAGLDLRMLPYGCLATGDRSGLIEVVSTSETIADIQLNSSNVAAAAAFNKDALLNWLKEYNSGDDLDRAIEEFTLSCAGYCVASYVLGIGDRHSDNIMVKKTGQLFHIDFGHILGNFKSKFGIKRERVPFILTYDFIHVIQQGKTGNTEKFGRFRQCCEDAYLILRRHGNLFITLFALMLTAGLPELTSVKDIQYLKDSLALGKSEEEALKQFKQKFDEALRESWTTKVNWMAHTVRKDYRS

[2] = target: Cytochrome P450 1A2 (Homo sapiens, UniProt P05177); assay: Inhibition of CYP1A2 (unknown origin); assay type: ADME
Cytochrome P450 1A2, sequence (P05177 whole entry): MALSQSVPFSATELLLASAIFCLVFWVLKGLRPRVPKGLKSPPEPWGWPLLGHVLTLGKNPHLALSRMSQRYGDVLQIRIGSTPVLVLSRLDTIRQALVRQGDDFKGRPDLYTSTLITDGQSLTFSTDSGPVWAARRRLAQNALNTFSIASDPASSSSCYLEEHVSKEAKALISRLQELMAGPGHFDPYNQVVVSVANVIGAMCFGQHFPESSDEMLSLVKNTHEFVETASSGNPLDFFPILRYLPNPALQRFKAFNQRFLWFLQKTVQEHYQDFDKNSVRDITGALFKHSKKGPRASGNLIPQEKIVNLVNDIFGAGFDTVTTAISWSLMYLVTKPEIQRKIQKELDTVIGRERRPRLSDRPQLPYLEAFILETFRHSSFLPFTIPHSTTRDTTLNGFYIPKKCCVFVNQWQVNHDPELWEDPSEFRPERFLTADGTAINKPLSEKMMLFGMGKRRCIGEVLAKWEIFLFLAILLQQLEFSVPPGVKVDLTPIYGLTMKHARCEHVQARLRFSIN

[3] = target: Cytochrome P450 2C9 (Homo sapiens, UniProt P11712); assay: Inhibition of CYP2C9 (unknown origin); assay type: ADME
Cytochrome P450 2C9, sequence (P11712 whole entry): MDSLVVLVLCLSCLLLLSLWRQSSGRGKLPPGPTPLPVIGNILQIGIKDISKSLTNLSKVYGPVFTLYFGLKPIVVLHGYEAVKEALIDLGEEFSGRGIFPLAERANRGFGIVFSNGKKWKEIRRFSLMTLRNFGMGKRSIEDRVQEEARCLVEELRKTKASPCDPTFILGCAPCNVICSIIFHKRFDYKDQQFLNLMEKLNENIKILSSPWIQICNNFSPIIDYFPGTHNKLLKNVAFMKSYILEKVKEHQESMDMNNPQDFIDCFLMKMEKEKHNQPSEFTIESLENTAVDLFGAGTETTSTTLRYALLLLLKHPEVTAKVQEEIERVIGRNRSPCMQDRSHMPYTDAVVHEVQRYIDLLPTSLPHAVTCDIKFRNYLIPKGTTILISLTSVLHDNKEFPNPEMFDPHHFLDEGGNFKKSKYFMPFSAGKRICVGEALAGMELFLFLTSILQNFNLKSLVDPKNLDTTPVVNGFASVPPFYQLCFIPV

[4] = test system: HepG2; assay: Antiproliferative activity against human HepG2 cells assessed as reduction in cell viability incubated for 48 hrs by MTT assay; assay type: functional, cell-based; settings: HepG2, 48 h
[5] = test system: HCT-116; assay: Induction of apoptosis in human HCT-116 cells assessed as late apoptotic cells at 10 uM incubated for 24 hrs by annexin V FITC/propidium iodide staining based flow cytometry (reference value: 6.8 %); assay type: functional
[6] = test system: Mus musculus; assay: Hyperglycemic activity in ICR mouse model assessed as effect on blood glucose level at 20 mg/kg, iv by glucometer; assay type: toxicity, organism-based; settings: in vivo
[7] = target: Phosphatidylinositol 4,5-bisphosphate 3-kinase catalytic subunit alpha isoform (Homo sapiens, UniProt P42336); assay: Inhibition of PI3Kalpha (unknown origin) using PIP2 as substrate in presence of ATP incubated for 60 mins by ADP-glo based luminescence assay
Phosphatidylinositol 4,5-bisphosphate 3-kinase catalytic subunit alpha isoform, sequence (P42336 whole entry, canonical isoform): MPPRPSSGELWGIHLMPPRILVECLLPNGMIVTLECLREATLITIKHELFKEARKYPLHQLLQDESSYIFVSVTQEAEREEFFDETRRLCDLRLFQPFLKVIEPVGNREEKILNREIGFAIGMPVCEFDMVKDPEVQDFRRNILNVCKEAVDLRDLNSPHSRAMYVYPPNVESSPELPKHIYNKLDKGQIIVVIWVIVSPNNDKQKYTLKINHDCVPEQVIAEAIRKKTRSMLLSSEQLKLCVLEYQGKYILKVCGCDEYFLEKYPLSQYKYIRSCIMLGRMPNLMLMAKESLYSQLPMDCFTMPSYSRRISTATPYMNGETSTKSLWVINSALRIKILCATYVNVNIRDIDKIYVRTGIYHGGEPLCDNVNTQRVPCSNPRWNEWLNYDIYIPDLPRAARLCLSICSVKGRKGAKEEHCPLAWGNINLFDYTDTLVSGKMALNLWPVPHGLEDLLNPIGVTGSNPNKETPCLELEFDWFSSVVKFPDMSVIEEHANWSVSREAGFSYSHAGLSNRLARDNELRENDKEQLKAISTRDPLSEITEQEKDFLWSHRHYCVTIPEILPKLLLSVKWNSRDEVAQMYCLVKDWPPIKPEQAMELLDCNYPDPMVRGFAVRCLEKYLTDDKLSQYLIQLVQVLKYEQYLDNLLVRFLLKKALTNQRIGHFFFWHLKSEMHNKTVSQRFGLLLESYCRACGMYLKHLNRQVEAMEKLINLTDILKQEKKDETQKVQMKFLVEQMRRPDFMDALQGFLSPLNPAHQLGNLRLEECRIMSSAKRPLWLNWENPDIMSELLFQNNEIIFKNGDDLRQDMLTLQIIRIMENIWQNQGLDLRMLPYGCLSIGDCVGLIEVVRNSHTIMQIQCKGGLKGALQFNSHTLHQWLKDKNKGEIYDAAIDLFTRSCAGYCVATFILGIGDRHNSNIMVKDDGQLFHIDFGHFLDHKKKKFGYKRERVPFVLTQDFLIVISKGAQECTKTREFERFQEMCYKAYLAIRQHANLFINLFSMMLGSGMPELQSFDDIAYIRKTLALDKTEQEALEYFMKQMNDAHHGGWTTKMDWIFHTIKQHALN

[8] = Half life in Sprague-Dawley rat at 20 mg/kg, iv by LC-MS/MS analysis; assay type: ADME, organism-based; settings: in vivo
[9] = target: Cytochrome P450 2D6 (Homo sapiens, UniProt P10635); assay: Inhibition of CYP2D6 (unknown origin); assay type: ADME
Cytochrome P450 2D6, sequence (P10635 whole entry): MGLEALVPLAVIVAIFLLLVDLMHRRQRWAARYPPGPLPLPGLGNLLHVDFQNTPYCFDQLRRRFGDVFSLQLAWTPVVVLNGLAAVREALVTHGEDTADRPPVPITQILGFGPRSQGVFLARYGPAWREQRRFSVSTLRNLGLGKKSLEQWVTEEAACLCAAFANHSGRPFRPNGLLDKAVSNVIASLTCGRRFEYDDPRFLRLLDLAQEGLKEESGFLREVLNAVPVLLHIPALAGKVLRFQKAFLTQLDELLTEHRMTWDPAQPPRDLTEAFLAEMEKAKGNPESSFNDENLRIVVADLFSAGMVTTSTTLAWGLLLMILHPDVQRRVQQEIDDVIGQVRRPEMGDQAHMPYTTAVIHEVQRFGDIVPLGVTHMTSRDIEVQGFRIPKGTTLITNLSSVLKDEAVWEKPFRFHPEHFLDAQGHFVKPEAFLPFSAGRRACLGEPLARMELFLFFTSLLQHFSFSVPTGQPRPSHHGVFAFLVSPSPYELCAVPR

[10] = test system: L02; assay: Antiproliferative activity against human L02 cells assessed as reduction in cell viability incubated for 48 hrs by MTT assay; assay type: cell-based; settings: L02, 48 h
[11] = Selectivity index, ratio of IC50 for antiproliferative activity against human L02 cells to IC50 for antiproliferative activity against human HepG2 cells; assay type: toxicity, cell-based; settings: L02 cells versus HepG2 cells, read-out: Ratio IC50
[12] = test system: HCT-116; assay: Induction of apoptosis in human HCT-116 cells assessed as necrotic cells at 10 uM incubated for 24 hrs by annexin V FITC/propidium iodide staining based flow cytometry (reference value: 0.9 %); assay type: functional
[13] = test system: HCT-116; assay: Induction of apoptosis in human HCT-116 cells assessed as late apoptotic cells at 5 uM incubated for 24 hrs by annexin V FITC/propidium iodide staining based flow cytometry (reference value: 6.8 %); assay type: functional
[14] = test system: HCT-116; assay: Inhibition of AKT phosphorylation at S473 residue in human HCT-116 cells at 10 uM after 24 hrs by Western blot analysis; assay type: cell-based
[15] = Metabolic stability in Sprague-Dawley rat liver microsome; assay type: ADME; settings: microsomes
[16] = test system: CNE-2; assay: Antiproliferative activity against human CNE-2 cells assessed as reduction in cell viability incubated for 48 hrs by MTT assay; assay type: functional, cell-based; settings: CNE-2, 48 h
[17] = test system: NCI-H1975; assay: Antiproliferative activity against human NCI-H1975 cells harboring EGFR L858R/T790M double mutant assessed as reduction in cell viability incubated for 72 hrs by celltiter-glo assay; assay type: functional, cell-based; settings: NCI-H1975, 72 h
[18] = test system: HCT-116; assay: Induction of apoptosis in human HCT-116 cells assessed as late apoptotic cells at 2.5 uM incubated for 24 hrs by annexin V FITC/propidium iodide staining based flow cytometry (reference value: 6.8 %); assay type: functional
[19] = target: T1, Phosphatidylinositol 4,5-bisphosphate 3-kinase catalytic subunit delta isoform (Homo sapiens, UniProt O00329); assay: Inhibition of PI3Kdelta (unknown origin) using PIP2 as substrate in presence of ATP incubated for 60 mins by ADP-glo based luminescence assay
T1 sequence (O00329 whole entry): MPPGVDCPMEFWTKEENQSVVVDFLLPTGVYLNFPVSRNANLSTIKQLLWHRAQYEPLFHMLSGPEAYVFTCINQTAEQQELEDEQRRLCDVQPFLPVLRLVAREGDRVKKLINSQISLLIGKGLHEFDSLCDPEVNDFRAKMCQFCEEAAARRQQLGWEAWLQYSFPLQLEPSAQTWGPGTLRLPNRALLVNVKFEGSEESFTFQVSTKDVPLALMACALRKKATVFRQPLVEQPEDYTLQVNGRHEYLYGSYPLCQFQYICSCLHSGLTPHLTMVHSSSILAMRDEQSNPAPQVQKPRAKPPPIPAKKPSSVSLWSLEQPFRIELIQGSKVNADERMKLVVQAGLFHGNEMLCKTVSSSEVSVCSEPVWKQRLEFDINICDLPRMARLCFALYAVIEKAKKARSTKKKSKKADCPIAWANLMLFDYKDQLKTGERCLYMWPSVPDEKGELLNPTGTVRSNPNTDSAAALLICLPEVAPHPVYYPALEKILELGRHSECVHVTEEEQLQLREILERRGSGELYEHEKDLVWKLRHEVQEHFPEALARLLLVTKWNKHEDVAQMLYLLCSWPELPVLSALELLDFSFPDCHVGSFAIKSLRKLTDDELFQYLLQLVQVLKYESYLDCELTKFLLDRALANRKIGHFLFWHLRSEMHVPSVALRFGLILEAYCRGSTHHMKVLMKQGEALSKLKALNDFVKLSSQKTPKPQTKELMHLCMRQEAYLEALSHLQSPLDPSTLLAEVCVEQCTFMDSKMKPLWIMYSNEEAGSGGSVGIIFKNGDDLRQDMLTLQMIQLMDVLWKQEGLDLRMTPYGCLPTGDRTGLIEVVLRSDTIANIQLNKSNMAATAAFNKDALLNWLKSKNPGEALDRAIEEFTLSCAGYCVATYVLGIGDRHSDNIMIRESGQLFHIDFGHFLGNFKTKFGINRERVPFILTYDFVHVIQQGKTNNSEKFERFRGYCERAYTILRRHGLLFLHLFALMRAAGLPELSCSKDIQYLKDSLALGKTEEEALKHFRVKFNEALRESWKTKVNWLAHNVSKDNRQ

[20] = test system: A-431; assay: Antiproliferative activity against human A431 cells harboring wild type EGFR mutant assessed as reduction in cell viability incubated for 72 hrs by celltiter-glo assay; assay type: functional, cell-based; settings: A-431, 72 h
[21] = test system: HCT-116; assay: Induction of apoptosis in human HCT-116 cells assessed as viable cells at 10 uM incubated for 24 hrs by annexin V FITC/propidium iodide staining based flow cytometry (reference value: 81.2 %); assay type: functional; settings: read-out: Activity
[22] = test system: HCT-116; assay: Antitumor activity against human HCT-116 cells xenografted in BALB/c nude mouse assessed as tumor growth inhibition at 20 mg/kg, iv administered for 19 days; assay type: functional; settings: HCT-116, iv, 456 h, time 19 day, read-out: TGI
[23] = test system: HCT-116; assay: Induction of apoptosis in human HCT-116 cells assessed as necrotic cells at 2.5 uM incubated for 24 hrs by annexin V FITC/propidium iodide staining based flow cytometry (reference value: 0.9 %); assay type: functional
[24] = test system: BaF3; assay: Antiproliferative activity against mouse BaF3 cells harboring EGFR L858R/T790M/C797S mutant assessed as reduction in cell viability incubated for 72 hrs by celltiter-glo assay; assay type: toxicity, cell-based; settings: BaF3, 72 h
[25] = AUC (0 to infinity) in Sprague-Dawley rat at 20 mg/kg, iv by LC-MS/MS analysis; assay type: ADME, organism-based; set-up: route intravenous, time infinity, dose 20 mg/kg; settings: in vivo

## NC(=O)[C@@H]1CCCN1C(=O)c1ccc(NC(=O)Nc2ccc(-c3nc(N4CCOCC4)nc(N4CCOCC4)n3)cc2)cc1
[1]
  pIC50: 8.37
[2]
  pIC50: < 4.30
[3]
  pIC50: < 4.30
[4]
  pIC50: 4.82
[5]
  Activity: 10.3%
[6]
  Activity: Non-Toxic
[7]
  pIC50: 9.15
[8]
  half-life: 19 h
[9]
  pIC50: < 4.30
[10]
  pIC50: < 4.00
[11]
  selectivity ratio: 6.6
[12]
  Activity: 1.7%
[13]
  Activity: 9.71%
[14]
  inhibition: Active
[15]
  Stability: Stable
[16]
  pIC50: 7.15
[17]
  pIC50: 6.66
[18]
  Activity: 20.6%
[19]
  pIC50: 7.56
[20]
  pIC50: 6.66
[21]
  viability at 10 µM: 63.1%
[22]
  inhibition in vivo at 20 mg/kg: 41.6%
[23]
  Activity: 2.2%
[24]
  pIC50: 6.66
[25]
  AUC(0-inf): 30600 ng·h/mL
